The test is described as follows: Inhibition of influenza A virus RNA-dependent RNA polymerase subunit PA endonuclease activity.

By pIC50 is commonly meant the IC50 on a negative log10 scale, so that one unit is a factor of ten. The molecule `COc1ccc(/C=C2\N=C(CC(C)C)C(=O)N(O)C2=O)cc1` returned a pIC50 of 6.1.

As to `CC(C)CC1=N/C(=C\c2ccc(F)cc2)C(=O)N(O)C1=O`, the negative-log IC50 (pIC50) is reported as 6.05.

For `O=C(Nc1ccccc1)Nc1ccc2c(C(=O)c3ccccc3)c(O)n(O)c2c1`, the negative-log IC50 (pIC50) was 4.54.

Molecule `O=C(O)/C(O)=C/C(=O)C1(Cc2ccc(Cl)cc2)CCCN(S(=O)(=O)Cc2ccccc2)C1` (stereo unspecified) displayed a pIC50 of 6.72.

`O=C(Nc1ccc2c(c1)N(O)C(=O)/C2=C(\O)c1ccccc1)C1CCCCC1` registered a pIC50 of 4.75.

`CC/C(O)=C1/C(=O)N(O)c2cc(NC(=O)Nc3cccc(C(=O)O)c3)ccc21`: the negative-log IC50 (pIC50) is 5.

`CC/C(O)=C1/C(=O)N(O)c2cc(NC(=O)/C=C/c3ccccc3Cl)ccc21` returned a pIC50 of 5.1.

The molecule `O=C(O)/C(O)=C/C(=O)C1(Cc2ccc(Cl)cc2)CCN(Cc2ccc(Cl)cc2)CC1` showed a pIC50 of 6.27.

`OC(CN1CCCCC1)Cn1c2c(c3ccccc31)CCCC2` (stereo unspecified) displayed a pIC50 of 4.44.

As to `C/C(O)=C1/C(=O)N(O)c2cc(NC(=O)/C=C/c3ccccc3Cl)ccc21`, the pIC50 was determined as 4.59.

The molecule `O=C(Nc1ccc2c(c1)N(O)C(=O)/C2=C(\O)c1ccccc1)c1ccc(Cl)cc1Cl` gave a pIC50 of 4.42.

Regarding `O=C1C(Cc2ccc(F)cc2)=N/C(=C\c2ccccc2)C(=O)N1O`, the pIC50 was 5.19.

Consider `Cc1nc(NCC(=O)O)sc1S(=O)(=O)Nc1ccc2c(c1)N(O)C(=O)/C2=C(\O)c1ccccc1`, for which the pIC50 turned out to be 4.49.

On to `CC(C)CC1=N/C(=C\c2ccccc2)C(=O)N(O)C1=O`, for which the pIC50 came out at 5.32.

In the case of `CCC(=O)c1c(O)n(O)c2cc(NC(=O)Nc3ccc(Cl)cc3)ccc12`, the pIC50 stood at 4.42.

`CC(C)/C=C1\N=C(CC(C)C)C(=O)N(O)C1=O` returned a pIC50 of 5.26.

As for `O=C(O)/C(O)=C/C(=O)C1(Cc2ccc(Cl)cc2)CCCN(Cc2ccccc2)C1` (stereo unspecified), the pIC50 is on record as 5.96.

In turn, `O=C(Nc1ccc2c(c1)N(O)C(=O)/C2=C(\O)c1ccccc1)c1cnc2ccccc2n1` returned a pIC50 of 4.77.

For the molecule `O=C1C(Cc2ccccc2)=N/C(=C\c2ccc(F)cc2)C(=O)N1O`, the pIC50 is 5.46.

The molecule `CCC(=O)c1c(O)n(O)c2cc(NC(=O)c3ccc(Cl)cc3Cl)ccc12` gave a pIC50 of 4.35.

`O=C(Nc1ccc2c(C(=O)c3ccccc3)c(O)n(O)c2c1)NC1CCCCC1`: the pIC50 was 4.3.

In the case of `O=C(Nc1ccc2c(c1)N(O)C(=O)/C2=C(\O)c1ccccc1)c1ccccc1`, the pIC50 is recorded as 5.

For the molecule `C/C(O)=C1/C(=O)N(O)c2cc(NC(=O)c3cccs3)ccc21`, the pIC50 is listed as 4.4.

In turn, `CC(=O)c1c(O)n(O)c2cc(NC(=O)c3ccc4ccccc4c3)ccc12` came in with a pIC50 of 5.05.

For the molecule `O=C1/C(=C(\O)c2ccccc2)c2ccc(NS(=O)(=O)c3cccs3)cc2N1O`, the pIC50 is reported as 4.32.

As to `O=C(Nc1ccc2c(c1)N(O)C(=O)/C2=C(\O)c1ccccc1)c1ccc2ccccc2c1`, the pIC50 amounted to 5.1.

The molecule `CC/C(O)=C1/C(=O)N(O)c2cc(NC(=O)c3cnc4ccccc4n3)ccc21` displayed a pIC50 of 5. The pIC50 values of the last two molecules are within 0.2 log units of each other.

`C/C(O)=C1/C(=O)N(O)c2cc(NC(=O)c3cnc4ccccc4n3)ccc21` displayed a pIC50 of 4.96.

`CCC(=O)c1c(O)n(O)c2cc(NC(=O)Nc3ccccc3Cl)ccc12` showed a pIC50 of 4.3.

Molecule `O=C(/C=C/c1ccccc1Cl)Nc1ccc2c(c1)N(O)C(=O)/C2=C(\O)c1ccccc1` returned a pIC50 of 5.02.

On to `CC/C(O)=C1/C(=O)N(O)c2cc(NC(=O)c3cccs3)ccc21`, for which the negative logarithm of the IC50 (pIC50) is on record as 4.46.

On to `O=C(Nc1ccc2c(c1)N(O)C(=O)/C2=C(\O)c1ccccc1)c1cccs1`, for which the pIC50 worked out at 4.7.

With `Cc1cc(C(=O)Nc2ccc3c(c2)N(O)C(=O)/C3=C(\O)c2ccccc2)no1`, the pIC50 is 5.02.

Take `COc1ccc(/C=C2\N=C(Cc3ccccc3)C(=O)N(O)C2=O)cc1`: the pIC50 is on record as 5.55.

For the molecule `CC/C(O)=C1/C(=O)N(O)c2cc(NC(=O)Nc3ccccc3)ccc21`, the pIC50 was determined as 4.4.

With `CC(=O)c1c(O)n(O)c2cc(NC(=O)Nc3cccc(C(=O)O)c3)ccc12`, the pIC50 is recorded as 4.85.

The values above are taken from ChEMBL document CHEMBL3102778, “Design of the influenza virus inhibitors targeting the PA endonuclease using 3D-QSAR modeling, side-chain hopping, and docking” (Bioorg Med Chem Lett, 2014).
